# Laboratory results reported in US7951815B2, “Substituted 1,4,8-triazaspiro [4,5]decan-2-one compounds” (Gruenenthal GmbH, priority 2004, dated 2011).
# Where two headings read alike, the source gives them in different places.
# Tests used:
# 5-HT transporter = biological target: T1, 5-HT transporter (Rattus norvegicus, UniProt P31652); assay: Inhibition of 5-HT uptake in rat brain synaptosomes; type: biochemical; conditions: read-out: Uptake 5-HT, % inhibition, rat, 1 μM
# T1 construct: synaptosomes of rat brain areas are freshly isolated; from tissue; host or cells: rat brain synaptosomes (P2 fraction) from marrow and pons
# [1] = system: batrachotoxin (BTX) binding site of the sodium channel; assay: Affinity to the batrachotoxin (BTX) binding site of the sodium channel; conditions: rat cerebrocortex synaptosomes, test concentration not given
# T1 sequence (P31652 whole entry): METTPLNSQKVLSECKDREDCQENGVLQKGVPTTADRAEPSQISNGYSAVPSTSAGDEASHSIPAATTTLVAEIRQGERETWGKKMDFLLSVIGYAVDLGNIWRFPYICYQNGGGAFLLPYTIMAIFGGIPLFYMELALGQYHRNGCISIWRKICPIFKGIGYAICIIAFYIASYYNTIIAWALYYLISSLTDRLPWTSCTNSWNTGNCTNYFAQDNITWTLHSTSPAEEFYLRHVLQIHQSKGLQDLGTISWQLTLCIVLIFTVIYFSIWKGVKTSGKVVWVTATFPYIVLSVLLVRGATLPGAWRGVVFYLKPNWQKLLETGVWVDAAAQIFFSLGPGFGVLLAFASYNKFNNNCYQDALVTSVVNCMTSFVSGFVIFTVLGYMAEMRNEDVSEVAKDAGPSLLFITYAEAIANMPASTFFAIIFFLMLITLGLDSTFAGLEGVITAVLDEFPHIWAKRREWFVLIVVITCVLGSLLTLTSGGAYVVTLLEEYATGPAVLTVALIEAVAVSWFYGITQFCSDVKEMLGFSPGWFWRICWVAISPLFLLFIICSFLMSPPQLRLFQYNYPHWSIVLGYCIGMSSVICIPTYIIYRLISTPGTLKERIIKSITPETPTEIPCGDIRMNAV
Compound,inhibition at 1 µM (5-HT transporter; Table III) [%],BTX inhibition ([1]; Table III),inhibition at 1 µM (5-HT transporter; Table II) [%],BTX inhibition ([1]; Table II)
"CC(C)CC1NC2(CCN(C(=O)c3cc(C(C)(C)C)nn3C)CC2)N(Cc2cccc(C#N)c2)C1=O (centres unmarked) [Example 218, 3-[8-(5-tert-Butyl-2-methyl-2H-pyrazole-3-carbonyl)-3-isobutyl-2-oxo-1,4,8-triazaspiro[4,5]dec-1-ylmethyl]benzonitrile]",57,39,,
"COc1ccc(C(=O)N2CCC3(CC2)NCC(=O)N3Cc2ccccc2F)cc1 [Example 285, 1-(2-Fluorobenzyl)-8-(4-methoxybenzoyl)-1,4,8-triazaspiro[4,5]decan-2-one]",65,32,,
"Cc1nn(-c2ccccc2)nc1C(=O)N1CCC2(CC1)NC(Cc1ccccc1)C(=O)N2C (centres unmarked) [Example 168, 3-Benzyl-1-methyl-8-(5-methyl-2-phenyl-2H-[1,2,3]triazole-4-carbonyl)-1,4,8-triazaspiro[4,5]decan-2-one]",46,44,,
"C=CCN1C(=O)C(C(C)C)NC12CCN(C(=O)Cc1cccc(OC)c1)CC2 (centres unmarked) [Example 296, 1-Allyl-3-isopropyl-8-[2-(3-methoxyphenyl)acetyl]-1,4,8-triazaspiro[4,5]decan-2-one]",30,36,,
"CCCCN1C(=O)C(Cc2ccccc2)NC12CCN(C(=O)c1ccc(I)cc1)CC2 (centres unmarked) [Example 207, 3-Benzyl-1-butyl-8-(4-Iodobenzoyl)-1,4,8-triazaspiro[4,5]decan-2-one]",76,57,,
"Cl.O=C1[C@H](Cc2ccccc2)NC2(CCNCC2)N1Cc1ccccc1 [Example 38, 1,3-(S)-Dibenzyl-1,4,8-triazaspiro[4,5]decan-2-one hydrochloride]",,,94,87
"O=C(CCCOc1ccccc1)N1CCC2(CC1)NC(Cc1ccccc1)C(=O)N2Cc1ccccc1 (centres unmarked) [Example 209, 1,3-Dibenzyl-8-(4-phenoxybutyryl)-1,4,8-triazaspiro[4,5]decan-2-one]",69,67,,
"Cl.O=C(c1cccc(F)c1F)N1CCC2(CC1)N[C@@H](Cc1ccccc1)C(=O)N2Cc1ccccc1 [Example 54, 1,3-(S)-dibenzyl-8-(2,3-difluorobenzoyl)-1,4,8-triazaspiro[4,5]decan-2-one hydrochloride]",,,81,37
"CC(C)CC1NC2(CCN(C(=O)c3ccc(Cl)nc3)CC2)N(Cc2c(Cl)cccc2Cl)C1=O (centres unmarked) [Example 279, 8-(6-Chloropyridin-3-carbonyl)-1-(2,6-dichlorobenzyl)-3-isobutyl-1,4,8-triazaspiro[4,5]decan-2-one]",48,60,,
"COC(=O)c1ccc(CN2C(=O)CNC23CCN(C(=O)c2ccc(C(C)(C)C)cc2)CC3)cc1 [Example 305, Methyl 4-[8-(4-tert-Butylbenzoyl)-2-oxo-1,4,8-triazaspiro[4,5]dec-1-ylmethyl]benzoate]",37,51,,
"COC(=O)c1ccc(CN2C(=O)CNC23CCN(C(=O)c2cc(C(C)(C)C)oc2C)CC3)cc1 [Example 292, Methyl 4-[8-(5-tert-butyl-2-methylfuran-3-carbonyl)-2-oxo-1,4,8-triazaspiro[4,5]dec-1-ylmethyl]benzoate]",40,40,,
"CCOC(=O)CN1C(=O)C(Cc2ccccc2)NC12CCN(C(=O)COCc1ccccc1)CC2 (centres unmarked) [Example 329, Ethyl [3-benzyl-8-(2-benzyloxyacetyl)-2-oxo-1,4,8-triazaspiro[4,5]dec-1-yl]acetate]",55,43,,
"COc1cccc(C(=O)N2CCC3(CC2)N[C@@H](Cc2ccccc2)C(=O)N3Cc2ccccc2)c1.Cl [Example 61, 1,3-(S)-dibenzyl-8-(3-methoxybenzoyl)-1,4,8-triazaspiro[4,5]decan-2-one hydrochloride]",,,,41
"O=C(c1ccc(-c2ccccc2)cc1)N1CCC2(CC1)NCC(=O)N2Cc1ccccc1 [Example 72, 1-Benzyl-8-(biphenyl-4-carbonyl)-1,4,8-triazaspiro[4,5]decan-2-one]",,39,,
